# According to US8455475B2 (Gruenenthal GmbH, priority 2009, dated 2013):
# Columns and labels:
# [1] = biological target: T1, human B1R (bradykinin receptor 1) (Homo sapiens, UniProt P46663); assay: FLIPR Ca2+ assay (Fluo-4) on CHO K1 cells stably transfected with the human B1R gene (hB1R cells): % inhibition at 10 μM / IC50, agonist Lys-Des-Arg9-bradykinin; type: cell-based; settings: for inhibition at 10 µM: CHO-K1, human B1R
# T1 construct: expressed in transfected cells; host or cells: CHO K1 cells
# T1 sequence (P46663 1-353): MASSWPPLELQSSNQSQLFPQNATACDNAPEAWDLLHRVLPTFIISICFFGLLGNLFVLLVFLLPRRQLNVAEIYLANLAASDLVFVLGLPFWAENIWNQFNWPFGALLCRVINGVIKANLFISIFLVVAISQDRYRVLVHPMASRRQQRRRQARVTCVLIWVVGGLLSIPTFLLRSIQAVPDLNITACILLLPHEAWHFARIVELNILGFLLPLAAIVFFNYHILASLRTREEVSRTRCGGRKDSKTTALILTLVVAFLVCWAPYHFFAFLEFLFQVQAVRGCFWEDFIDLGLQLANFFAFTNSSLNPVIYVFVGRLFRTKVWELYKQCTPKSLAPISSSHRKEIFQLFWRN
# Method: The agonistic or antagonistic action of substances can be quantified on the bradykinin receptor 1 (B1R) of the human and rat species with ectopically expressing cell lines (CHO K1 cells) and with the aid of a Ca^2+-sensitive dyestuff (Fluo-4) in a fluorescent imaging plate reader (FLIPR). The figure in % activation is based on the Ca^2+ signal after addition of Lys-Des-Arg^9-bradykinin (0.5 nM) or Des-Arg^9-bradykinin (100 nM). Antagonists lead to a suppression of the Ca^2+ inflow after addition of the agonist. % inhibition compared with the maximum achievable inhibition is stated.
# The agonistic or antagonistic action of substances can be determined on the bradykinin receptor 1 (B1R) of the human and rat species with the following assay. In accordance with this assay, the Ca^2+ inflow through the channel is quantified with the aid of a Ca^2+-sensitive dyestuff (type Fluo-4, Molecular Probes Europe BV, Leiden, Holland) in a fluorescent imaging plate reader (FLIPR, Molecular Devices, Sunnyvale, USA).
# Chinese hamster ovary cells (CHO K1 cells) transfected stably with the human B1R gene (hB1R cells) or the B1R gene of the rat (rB1R cells) are used. For functional studies, these cells are plated out on black 96-well plates with a clear base (BD Biosciences, Heidelberg, Germany or Greiner, Frickenhausen, Germany) in a density of 20,000-35,000 cells/well. The cells are left overnight at 37° C. and 5% CO2 in culture medium (hB1R cells: Nutrient Mixture Ham's F12, Gibco Invitrogen GmbH, Karlsruhe, Germany or DMEM, Sigma-Aldrich, Taufkirchen, Germany; rB1R cells: D-MEM/F12, Gibco Invitrogen GmbH, Karlsruhe, Germany) with 10 vol. % FBS (foetal bovine serum, Gibco Invitrogen GmbH, Karlsruhe, Germany or PAN Biotech GmbH, Aidenbach, Germany). On the following day, the cells are loaded for 60 min at 37° C. with 2.13 μM Fluo-4 (Molecular Probes Europe BV, Leiden Holland) in HBSS buffer (Hank's buffered saline solution, Gibco Invitrogen GmbH, Karlsruhe, Germany) with 2.5 mM probenecid (Sigma-Aldrich, Taufkirchen, Germany) and 10 mM HEPES (Sigma-Aldrich, Taufkirchen, Germany). The plates are then washed 2× with HBSS buffer, and HBSS buffer which additionally contains 0.1% BSA (bovine serum albumin; Sigma-Aldrich, Taufkirchen, Germany), 5.6 mM glucose and 0.05% gelatine (Merck KGaA, Darmstadt, Germany) is added. After a further incubation of 20 minutes at room temperature, the plates are inserted into the FLIPR for the Ca^2+ measurement. Alternatively, the plates are washed with buffer A (15 mM HEPES, 80 mM NaCl, 5 mM KCl, 1.2 mM CaCl2, 0.7 mM MgSO4, 2 g/l glucose, 2.5 mM probenecid), buffer A is added and the plates are loaded with 2.5 μM Fluo-4 and 0.025% Pluronic F127 (Sigma-Aldrich, Taufkirchen, Germany). Thereafter, the cells are washed 2× with buffer A and incubated for 30 minutes at room temperature with buffer A, which additionally contains 0.05% BSA and 0.05% gelatine, and thereafter inserted into the FLIPR for the Ca^2+ measurement. The Ca^2+-dependent fluorescence is measured here before and after addition of substances (λex=488 nm, λem=540 nm). Quantification is by measurement of the highest fluorescence intensity (FC, fluorescence counts) over time.
# The FLIPR protocol consists of 2 additions of substance. Test substances (10 μM) are first pipetted on to the cells and the Ca^2+ inflow is compared with the control (hB1R: Lys-Des-Arg^9-bradykinin>=50 nM; rB1R: Des-Arg^9-bradykinin 10 μM). This gives the result in % activation based on the Ca^2+ signal after addition of Lys-Des-Arg^9-bradykinin (>=50 nM) or Des-Arg^9-bradykinin (10 μM). After incubation for 10-20 minutes, Lys-Des-Arg^9-bradykinin (hB1R) or Des-Arg^9-bradykinin (rB1R) in the concentration of the EC80 is applied and the inflow of Ca^2+ is likewise determined. Antagonists lead to a suppression of the Ca^2+ inflow. % inhibition compared with the maximum achievable inhibition is calculated.
# For determination of the IC50 value, the substances are added in various concentrations. […]
# [2] = biological target: T2, rat B1R (bradykinin receptor 1) (Rattus norvegicus, UniProt P97583); assay: FLIPR Ca2+ assay (Fluo-4) on CHO K1 cells stably transfected with the B1R gene of the rat (rB1R cells): % inhibition at 10 μM / IC50, agonist Des-Arg9-bradykinin; type: cell-based; settings: for inhibition at 10 µM: CHO-K1, rat B1R
# T2 construct: expressed in transfected cells; host or cells: CHO K1 cells
# T2 sequence (P97583 1-337): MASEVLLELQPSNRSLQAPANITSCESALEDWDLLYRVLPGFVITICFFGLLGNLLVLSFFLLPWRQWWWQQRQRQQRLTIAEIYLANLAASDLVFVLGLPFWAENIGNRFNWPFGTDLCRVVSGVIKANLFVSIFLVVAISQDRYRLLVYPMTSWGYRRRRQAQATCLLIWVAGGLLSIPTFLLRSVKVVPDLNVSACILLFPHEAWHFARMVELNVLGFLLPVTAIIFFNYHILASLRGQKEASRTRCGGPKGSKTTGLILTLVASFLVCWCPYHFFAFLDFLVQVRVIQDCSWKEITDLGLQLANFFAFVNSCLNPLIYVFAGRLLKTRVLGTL
# In short: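 Stable CHO K1 lines, Fluo-4 dye, probenecid-containing buffer. Cpd 10 μM or dose range, 10–20 min, then EC80 agonist (h: Lys-Des-Arg9-BK; r: Des-Arg9-BK). Readout peak FC; % inhibition vs max; IC50 from n=2–3, N≥2.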
Structure (SMILES),inhibition at 10 µM [1] [%],inhibition at 10 µM [2] [%],% Inhibition (human B1R) at 10 μM ([1]; human B1R) [%],"% Inhibition (rat B1R) at 10 μM ([2]; rat B1R, 10 µM) [%]"
"O=C(NC1CCc2ccc(C(=O)N3CCC4(CCN(c5ccncc5)C4)C3)cc21)c1ccccc1Cl (stereo not drawn) [Example H-04, 2-chloro-N-[6-(8-pyridin-4-yl-3,8-diazaspiro[4.4]nonane-3-carbonyl)-2,3-dihydro-1H-inden-1-yl]-benzamide]",100,106,–,–
"O=C(NC1CCc2ccc(C(=O)N3CCC4(CCN(c5ccncc5)CC4)C3)cc21)c1ccccc1Cl (stereo not drawn) [Example H-05, 2-chloro-N-[6-(8-pyridin-4-yl-3,8-diazaspiro[4.5]decane-3-carbonyl)-2,3-dihydro-1H-inden-1-yl]-benzamide]",–,–,100,105
"O=C(NC1CCc2ccc(C(=O)N3CCC4(CCC(N5CCC5)CC4)CC3)cc21)c1ccccc1Cl (stereo not drawn) [Example H-06, N-[6-[9-(azetidin-1-yl)-3-azaspiro[5.5]undecane-3-carbonyl)-2,3-dihydro-1H-indan-1-yl]-2-chloro-benzamide]",60,98,–,–
"O=C(NC1CCc2ccc(C(=O)N3CCC4(CCC(N5CC(F)(F)C5)CC4)CC3)cc21)c1ccccc1Cl (stereo not drawn) [Example H-07, 2-chloro-N-[6-[9-(3,3-difluoro-azetidin-1-yl)-3-azaspiro[5.5]undecane-3-carbonyl]-2,3-dihydro-1H-inden-1-yl]-benzamide]",34,69,–,–
O=C(NC1CCc2ccc(C(=O)N3CCC4(CCC(Oc5ccncc5)CC4)CC3)cc21)c1ccccc1Cl (stereo not drawn) [Example H-08],71,100,–,–
"O=C(N[C@@H]1CCCc2ccc(C(=O)N3CCC4(CC3)CCN(c3ccncc3)CC4)cc21)c1ccccc1Cl [Example H-09, 2-chloro-N-[(1R)-7-(9-pyridin-4-yl-3,9-diazaspiro[5.5]undecane-3-carbonyl)-1,2,3,4-tetrahydro-naphthalen-1-yl]-benzamide]",100,102,–,–
"O=C(N[C@H]1CCCc2ccc(C(=O)N3CCC4(CC3)CCN(c3ccncc3)CC4)cc21)c1ccccc1Cl [Example H-10, 2-chloro-N-[(1S)-7-(9-pyridin-4-yl-3,9-diazaspiro[5.5]undecane-3-carbonyl)-1,2,3,4-tetrahydro-naphthalen-1-yl]-benzamide]",49,103,–,–
"O=C(N[C@@H]1CCCc2ccc(C(=O)N3CCC4(CCN(c5ccncc5)CC4)C3)cc21)c1ccccc1Cl [Example H-11, 2-chloro-N-[(1R)-7-(8-pyridin-4-yl-3,8-diazaspiro[4.5]decane-3-carbonyl]-1,2,3,4-tetrahydro-naphthalen-1-yl]-benzamide]",99,103,–,–

# The remaining lines, values ahead:
inhibition at 10 µM [1] [%],inhibition at 10 µM [2] [%],% Inhibition (human B1R) at 10 μM ([1]; human B1R) [%],"% Inhibition (rat B1R) at 10 μM ([2]; rat B1R, 10 µM) [%]",Structure (SMILES)
97,102,–,–,"O=C(N[C@H]1CCCc2ccc(C(=O)N3CCC4(CCN(c5ccncc5)CC4)C3)cc21)c1ccccc1Cl [Example H-12, 2-chloro-N-[(1S)-7-(8-pyridin-4-yl-3,8-diazaspiro[4.5]decane-3-carbonyl]-1,2,3,4-tetrahydro-naphthalen-1-yl]-benzamide]"
100,101,–,–,"O=C(c1ccc2c(c1)[C@H](N1Cc3cccc(Cl)c3C1=O)CCC2)N1CCC2(CCN(c3ccncc3)CC2)C1 [Example H-13, 7-chloro-2-[(1R)-7-(8-pyridin-4-yl-3,8-diazaspiro[4.5]decane-3-carbonyl)-1,2,3,4-tetrahydro-naphthalen-1-yl]-2,3-dihydro-isoindol-1-one]"
91,101,–,–,"O=C(c1ccc2c(c1)[C@H](N1Cc3cccc(Cl)c3C1=O)CCC2)N1CCC2(CC1)CCN(c1ccncc1)CC2 [Example H-14, 7-chloro-2-[(1R)-7-(9-pyridin-4-yl-3,9-diazaspiro[5.5]undecane-3-carbonyl)-1,2,3,4-tetrahydro-naphthalen-1-yl]-2,3-dihydro-isoindol-1-one]"
59,11,–,–,"O=C(c1ccc2c(c1)[C@@H](N1Cc3cccc(Cl)c3C1=O)CCC2)N1CCC2(CCN(c3ccncc3)CC2)C1 [Example H-15, 7-chloro-2-[(1S)-7-(8-pyridin-4-yl-3,8-diazaspiro[4.5]decane-3-carbonyl)-1,2,3,4-tetrahydro-naphthalen-1-yl]-2,3-dihydro-isoindol-1-one]"
100,102,–,–,"COc1cc(C)c(S(=O)(=O)N[C@@H]2CCCc3ccc(C(=O)N4CCC5(CCN(c6ccncc6)CC5)C4)cc32)c(C)c1 [Example H-16, 4-methoxy-2,6-dimehtyl-N-[(1R)-7-(8-pyridin-4-yl-3,8-diazaspiro[4.5]decane-3-carbonyl)-1,2,3,4-tetrahydro-naphthalen-1-yl]-benzenesulfonic acid amide]"
98,102,–,–,"COc1cc(C)c(S(=O)(=O)N[C@@H]2CCCc3ccc(C(=O)N4CCC5(CC4)CCN(c4ccncc4)CC5)cc32)c(C)c1 [Example H-17, 4-methoxy-2,6-dimethyl-N-[(1R)-7-(9-pyridin-4-yl-3,9-diazaspiro[5.5]undecane-3-carbonyl)-1,2,3,4-tetrahydro-naphthalen-1-yl]-benzenesulfonic acid amide]"
96,104,–,–,"COc1cc(C)c(S(=O)(=O)N[C@H]2CCCc3ccc(C(=O)N4CCC5(CCN(c6ccncc6)CC5)C4)cc32)c(C)c1 [Example H-18, 4-methoxy-2,6-dimethyl-N-[(1S)-7-(8-pyridin-4-yl-3,8-diazaspiro[4.5]decane-3-carbonyl)-1,2,3,4-tetrahydro-naphthalen-1-yl]-benzenesulfonic acid amide]"
